Data taken from publication PMC12363265, “Glucagon-like peptide-1 receptor agonists for treatment of diabetes and obesity: advantage of oral delivery” (Frontiers in Drug Delivery, 2024).
Where a SMILES comes first, the peptide text is derived from it. [ ]: non-standard residue; d: D form. The star is where a group is joined. ξ: configuration not given here. ξGly(octyl) = CCCCCCCCC(N)C(=O)O; Hexenoyl(3E) = CC/C=C/CC(=O)*

Key:
[1] = ref unpublished data; cited from earlier work
Excerpt: In a separate experiment, intestinal delivery was studied of two GLP-1 analogues where modifications were made with the aim of increasing their circulating half-life by several hours relative to the native molecule. In one variant, G001, the molecule was identical to native GLP-1, except that N-terminal amino group was conjugated with salicylic acid. In the second, lipidated, analogue, G002, the N-terminal was conjugated with trans-3-hexenoic acid, and in position 14, leucine was replaced by octyl glycine. In addition, glutamate and alanine in positions 21 and 24 respectively were reversed, an ...

[2] = tested on: blood glucose; assay: Blood glucose response to exendin-4 in anaesthetised rats; assay type: in vivo, rat; conditions: exendin-4 co-formulated in Axcess with recombinant human insulin, via the intestine, n = 5
Excerpt: Male Sprague-Dawley rats aged 8 weeks were checked for health status on delivery and assigned to cages (2 or 3 animals per cage) within the social groups at delivery and with animals of similar weight in the same cage. Animals were acclimated to the facility for 7 days before transfer to the study room for a further 4 days before the start of the experiment. The rats were randomly allotted to control and treatment groups. Animals were identified by cage tag and corresponding colour tail markings. At day −2 daily 24 h food intake was registered for each cage with 2-3 rats. At 14.00 h on day −1 (i.e., the day prior to the surgery) 50% of the usual food consumed in that interval was offered to the rats. […]
All data were entered into Excel spreadsheets and subsequently subjected to relevant statistical analyses (Graph Pad Prism software). […] Bioavailability=AUC peptide enteral administration/quantity of peptide administered enterally×quantity of peptide injected i.v./AUC of peptide after i.v. injection×100 Biopotency=biological activity after enteral administration/quantity of peptide administered enterally×quantity of peptide injected i.v./biological activity after i.v. injection×100

Compound | half-life in rats [1] [h] | blood glucose with co-formulated insulin [2]
CC/C=C/CC(=O)N[C@@H](Cc1c[nH]cn1)C(=O)N[C@@H](C)C(=O)N[C@@H](CCC(=O)O)C(=O)NCC(=O)N[C@H](C(=O)N[C@@H](Cc1ccccc1)C(=O)N[C@H](C(=O)N[C@@H](CO)C(=O)N[C@@H](CC(=O)O)C(=O)N[C@H](C(=O)N[C@@H](CO)C(=O)N[C@@H](CO)C(=O)N[C@@H](Cc1ccc(O)cc1)C(=O)NC(CCCCCCCC)C(=O)N[C@@H](CCC(=O)O)C(=O)NCC(=O)N[C@@H](CCC(N)=O)C(=O)N[C@@H](C)C(=O)N[C@@H](C)C(=O)N[C@@H](CCCCN)C(=O)N[C@@H](C)C(=O)N[C@@H](Cc1ccccc1)C(=O)N[C@H](C(=O)N[C@@H](CCC(=O)O)C(=O)N[C@@H](Cc1c[nH]c2ccccc12)C(=O)N[C@@H](CC(C)C)C(=O)N[C@H](C(=O)N[C@@H](CCCCN)C(=O)N[C@@H](CC(N)=O)C(N)=O)C(C)C)[C@@H](C)CC)C(C)C)[C@@H](C)O)[C@@H](C)O (stereo partly drawn) [G002] ({Hexenoyl(3E)}-HAEGTFTSDVSSY[ξGly(octyl)]EGQAAKAFIEWLVKN-NH2) | ~12 | 
Sal-HAEGTFTSDVSSYLEGQAAKEFIAWLVKGR-NH2 [G001, identical to native GLP-1, except that N-terminal amino group was conjugated with salicylic acid] | 0.417 | 
recombinant human insulin: recombinant human insulin co-formulated with exendin-4 in the Axcess formulation |  | reduce blood glucose relative to exendin-4 administered alone
